According to US20170291890A1 (Epizyme, Inc., priority 2014, published 2017):

Biological target: T1, KDM5A (Homo sapiens, UniProt P29375)
T1 construct: C-terminal FLAG-tagged KDM5A^1-1090 was purchased from BPS Biosciences; FLAG (C); purchased BPS Biosciences
T1 sequence (P29375 1-1090): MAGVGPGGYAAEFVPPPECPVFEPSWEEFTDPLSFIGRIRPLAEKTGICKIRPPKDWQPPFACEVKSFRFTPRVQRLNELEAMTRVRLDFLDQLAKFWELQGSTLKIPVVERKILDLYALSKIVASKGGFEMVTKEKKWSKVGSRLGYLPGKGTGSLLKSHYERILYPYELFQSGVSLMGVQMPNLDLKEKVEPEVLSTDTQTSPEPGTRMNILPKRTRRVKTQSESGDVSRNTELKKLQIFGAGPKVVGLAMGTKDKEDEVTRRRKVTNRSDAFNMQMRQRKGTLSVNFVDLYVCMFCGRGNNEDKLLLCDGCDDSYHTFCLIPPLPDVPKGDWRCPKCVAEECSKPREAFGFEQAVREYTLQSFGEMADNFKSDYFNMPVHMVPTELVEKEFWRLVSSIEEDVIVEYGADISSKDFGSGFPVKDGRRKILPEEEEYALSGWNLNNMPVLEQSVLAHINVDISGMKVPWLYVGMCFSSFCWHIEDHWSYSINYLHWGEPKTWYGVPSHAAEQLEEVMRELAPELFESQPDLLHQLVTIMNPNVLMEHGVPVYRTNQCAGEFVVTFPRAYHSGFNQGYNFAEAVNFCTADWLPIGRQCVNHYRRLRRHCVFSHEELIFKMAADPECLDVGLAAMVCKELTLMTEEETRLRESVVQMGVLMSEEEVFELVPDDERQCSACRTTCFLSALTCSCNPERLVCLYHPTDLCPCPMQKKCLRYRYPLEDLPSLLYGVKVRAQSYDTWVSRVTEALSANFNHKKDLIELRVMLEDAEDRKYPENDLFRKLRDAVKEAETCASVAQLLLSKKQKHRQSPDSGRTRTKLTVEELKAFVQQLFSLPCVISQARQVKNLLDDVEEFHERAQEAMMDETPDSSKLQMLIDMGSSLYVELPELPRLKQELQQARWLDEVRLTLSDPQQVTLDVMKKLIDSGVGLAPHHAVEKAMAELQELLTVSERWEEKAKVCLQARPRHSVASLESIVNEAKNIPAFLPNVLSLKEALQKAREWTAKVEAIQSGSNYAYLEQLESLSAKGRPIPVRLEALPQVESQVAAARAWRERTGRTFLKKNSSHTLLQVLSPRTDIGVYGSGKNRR
Test: KDM5A Assay (SAMDI mass spectrometry demethylase assay)
Type: biochemical
Details: C-terminal FLAG-tagged KDM5A 1-1090; class symbols; read-out: 5A IC50
Procedure: C-terminal FLAG-tagged KDM5A^1-1090 was purchased from BPS Biosciences. Peptides were synthesized by BioPeptide and all other reagents were purchased from Sigma-Aldrich at the highest level of purity possible. Assays were performed in a 50 μL volume in 384-well V-bottom polypropylene microplates (Greiner) at 25° C. Optimized 1× assay buffer was 50 mM HEPES (pH=8.0), 100 μM sodium ascorbate, 20 mM NaCl, 10 μM ammonium iron sulfate, 1 mM tris(2-carboxyethyl)phosphine (TCEP), 0.002% Tween-20, and 0.005% BSG. For compound screening, 35 μL of […] (final concentration, f.c.=20 nM) was added using a Multidrop Combi and preincubated with 1 μL of test compound (f.c.=10 μM) for 30 minutes and subsequently 15 μL of peptide with the following sequence NH2-ART[Kme-3]QTARKSTGGKA[K-Ahx-Biot]-amide (f.c.=250 nM) and 2-oxoglutarate (f.c.=15 μM) was added by Multidrop Combi to begin the reaction. Reactions proceeded for 150 minutes and were stopped by the addition of 5 μL of formic acid (f.c.=0.5%) using a Multidrop Combi and then analyzed by SAMDI Tech Inc.
SAMDI Tech analyzed all reactions using self-assembled monoloayer desorption/ionization technology as previously described (Gerard-Levin Z A, Scholle M D, Eisenberg A H, et al.: High-throughput screening of small molecule libraries using SAMDI mass spectrometry. ACS Comb Sci 2011; 13:347-350). Briefly, a 2 μL sample of the stopped demethylase reactions were transferred to a SAMDI array coated with 384 biotin-neutravidin spots using a 384-channel pipet station. The SAMDI arrays were incubated for 1 h in a humidified chamber, followed by washing of the surface with deionized ultra-filtered water (DIUF) and drying under nitrogen. A matrix of 30 mg/ml 2′,4′,6′-Trihydroxyacetophenone monohydrate (THAP) in acetone was applied using a TPP Mosquito 1.2 μL tip by dispensing 50 nL on each of the 384 spots on the array. SAMDI-MS was run using acquisition method ReflectorPositiveUTX. The % conversion of substrate to product was calculated using the AUC of the substrate and product peptide peaks.
An IC50 value was determined by contacting various concentrations of a test compound with one of the KDM4A, KDM4C or KDMSC enzyme constructs and plotting a dose-response curve which associates the amount of inhibition of the enzyme relative to the concentration of the test compound. From the curve, the IC50 value (which represents the concentration of the test compound necessary to inhibit maximal enzymatic activity by 50%) was determined. Additionally, the slope of the linear range of the plotted curve, which indicates the speed with which the curve rises between the minimum and maximum, was calculated.

IC50 [nM] | Compound
1000 to 10000 | Cc1c(Nc2cnccc2C(=O)O)cnn1C1CCN(C(C)C)CC1 [Compound 104]
1000 to 10000 | Cc1c(Nc2cnccc2C(=O)O)cnn1[C@H]1CC[C@@H](N)CC1 [Compound 79, 3-((1-((cis)-4-aminocyclohexyl)-5-methyl-1H-pyrazol-4-yl)amino)isonicotinic acid]
1 to 100 | COc1ccccc1-n1cc(C)c(Nc2cnccc2C(=O)O)n1 [Compound 63, 3-((1-(2-methoxyphenyl)-4-methyl-1H-pyrazol-3-yl)amino) isonicotinic acid]
10000 to 100000 | COC(=O)c1ccncc1Nc1cnn(C2CCN(C(C)C)CC2)c1C [Compound 103, methyl 3-((1-(1-isopropylpiperidin-4-yl)-5-methyl-1H-pyrazol-4-yl)amino)isonicotinate]
1 to 100 | Cc1c(Nc2cnccc2C(=O)O)nn(CCN2CCC(F)(F)CC2)c1-c1ccccc1 [Compound 67, 3-((1-(2-(4,4-difluoropiperidin-1-yl)ethyl)-4-methyl-5-phenyl-1H-pyrazol-3-yl)amino)isonicotinic acid]
1 to 100 | Cc1cn(-c2ccccc2)nc1Nc1cnccc1C(=O)O [Compound 62, 3-((4-methyl-1-phenyl-1H-pyrazol-3-yl)amino) isonicotinic acid]
10000 to 100000 | Cc1nn(-c2ccccc2)c(C)c1Nc1cnccc1C(=O)O [Compound 77, 3-((3,5-dimethyl-1-phenyl-1H-pyrazol-4-yl)amino)isonicotinic acid]
1000 to 10000 | Cc1cc(Nc2cnccc2C(=O)O)nn1-c1ccccc1 [Compound 60, 3-((5-methyl-1-phenyl-1H-pyrazol-3-yl)amino)isonicotinic acid]
100 to 1000 | Cc1nn(C2CCCNCC2)cc1Nc1cnccc1C(=O)O (single isomer, unassigned) [Compound 114]
10000 to 100000 | Cc1nn(-c2ccc(O)cc2)c(C)c1Nc1cnccc1C(=O)O [Compound 76, 3-((1-(4-hydroxyphenyl)-3,5-dimethyl-1H-pyrazol-4-yl)amino)isonicotinic acid]
1 to 100 | Cc1cn(-c2ccccc2C#N)nc1Nc1cnccc1C(=O)O [Compound 71, 3-((1-(2-cyanophenyl)-4-methyl-1H-pyrazol-3-yl)amino) isonicotinic acid]

The next lines start with the molecule.

Compound | IC50 [nM]
COCCn1nc(-c2ccccc2)cc1Nc1cnccc1C(=O)O [Compound 27, 3-((1-(2-Methoxyethyl)-3-phenyl-1H-pyrazol-5-yl)amino) isonicotinic acid] | 100 to 1000
Cn1ncc(-c2cccc(F)c2)c1Nc1cnccc1C(=O)O [Compound 10, 3-((4-(3-Fluorophenyl)-1-methyl-1H-pyrazol-5-yl)amino) isonicotinic acid] | 10000 to 100000
Cn1nc(-c2ccc(Cl)cc2)cc1Nc1cnccc1C(=O)O [Compound 24, 3-((3-(4-Chlorophenyl)-1-methyl-1H-pyrazol-5-yl)amino) isonicotinic acid] | 1 to 100
Cn1cc(-c2ccccc2F)c(Nc2cnccc2C(=O)O)n1 [Compound 11, 3-((4-(2-Fluorophenyl)-1-methyl-1H-pyrazol-3-yl)amino) isonicotinic acid] | 1000 to 10000
O=C(O)c1ccncc1Nc1cn(CCN2CCC(F)(F)CC2)nc1-c1ccccc1 [Compound 17, 3-((1-(2-(4,4-Difluoropiperidin-1-yl)ethyl)-3-phenyl-1H-pyrazol-4-yl)amino)isonicotinic acid] | 100 to 1000
Cc1c(Nc2cnccc2C(=O)O)cnn1Cc1ccccc1 [Compound 33, 3-((1-benzyl-5-methyl-1H-pyrazol-4-yl)amino)isonicotinic acid] | 100 to 1000
CNC(=O)c1ccc(-n2ncc(Nc3cnccc3C(=O)O)c2C)cc1 [Compound 58, 3-((5-methyl-1-(4-(methylcarbamoyl)phenyl)-1H-pyrazol-4-yl)amino) isonicotinic acid] | 1000 to 10000
Cc1nn(-c2ccccc2)cc1Nc1cnccc1C(=O)O [Compound 19, 3-((3-Methyl-1-phenyl-1H-pyrazol-4-yl)amino)isonicotinic acid] | 1 to 100
CN1CCN(CCn2cc(-c3ccccc3)c(Nc3cnccc3C(=O)O)n2)CC1 [Compound 34, 3-((1-(2-(4-Methylpiperazin-1-yl)ethyl)-4-phenyl-1H-pyrazol-3-yl)amino)isonicotinic acid] | 10000 to 100000
Cc1c(Nc2cnccc2C(=O)O)cnn1-c1ccccc1 [Compound 20, 3-((5-methyl-1-phenyl-1H-pyrazol-4-yl)amino)isonicotinic acid] | 1000 to 10000
Cn1cc(-c2ccccc2)c(Nc2cnccc2C(=O)O)n1 [Compound 3] | 1000 to 10000
O=C(O)c1ccncc1Nc1nn(CCN2CCC(F)(F)CC2)cc1-c1ccc(F)cc1 [Compound 45, 3-((1-(2-(4,4-difluoropiperidin-1-yl)ethyl)-4-(4-fluorophenyl)-1H-pyrazol-3-yl)amino)isonicotinic acid] | 1 to 100
O=C(O)c1ccncc1Nc1cc(-c2ccccc2)nn1C1CCOCC1 [Compound 23, 3-((3-Phenyl-1-(tetrahydro-2H-pyran-4-yl)-1H-pyrazol-5-yl)amino)isonicotinic acid] | 1000 to 10000
NCCn1nc(-c2ccccc2)cc1Nc1cnccc1C(=O)O [Compound 26] | 1000 to 10000
O=C(O)c1ccncc1Nc1cn(-c2ccccc2)nc1-c1ccccc1 [Compound 41, 3-((1,3-Diphenyl-1H-pyrazol-4-yl)amino)isonicotinic acid] | 1000 to 10000
Cc1cn(-c2ccccc2)c(Nc2cnccc2C(=O)O)n1 [Compound 2] | 1000 to 10000
CCn1nc(-c2ccccc2)cc1Nc1cnccc1C(=O)O [Compound 36, 3-((1-Ethyl-3-phenyl-1H-pyrazol-5-yl)amino)isonicotinic acid] | 1 to 100
Cc1n[nH]c(C)c1Nc1cnccc1C(=O)O [Compound 16, 3-((3,5-Dimethyl-1H-pyrazol-4-yl)amino)isonicotinic acid] | 10000 to 100000
CN(C)CCCn1ncc(-c2ccccc2)c1Nc1cnccc1C(=O)O [Compound 52, 3-((1-(3-(dimethylamino)propyl)-4-phenyl-1H-pyrazol-5-yl)amino) isonicotinic acid] | 1000 to 10000
O=C(O)c1ccncc1Nc1cc(-c2ccccc2)nn1[C@H]1CC[C@@H](O)CC1 [Compound 40, 3-((1-((cis)-4-Hydroxycyclohexyl)-3-phenyl-1H-pyrazol-5-yl)amino)isonicotinic acid] | 1000 to 10000
CN1CCN(CCn2ncc(-c3ccccc3)c2Nc2cnccc2C(=O)O)CC1 [Compound 35, 3-((1-(2-(4-methylpiperazin-1-yl)ethyl)-4-phenyl-1H-pyrazol-5-yl)amino)isonicotinic acid] | 1 to 100
